This is an account of results in paper PMC3389199 (Bioorganic & medicinal chemistry letters, 2012).

In general, IC50 refers to the midpoint of a concentration-inhibition curve.

Test [1] addresses T1, hDAGLα (Homo sapiens, UniProt Q9Y4D2).
T1 sequence (Q9Y4D2 1-1042): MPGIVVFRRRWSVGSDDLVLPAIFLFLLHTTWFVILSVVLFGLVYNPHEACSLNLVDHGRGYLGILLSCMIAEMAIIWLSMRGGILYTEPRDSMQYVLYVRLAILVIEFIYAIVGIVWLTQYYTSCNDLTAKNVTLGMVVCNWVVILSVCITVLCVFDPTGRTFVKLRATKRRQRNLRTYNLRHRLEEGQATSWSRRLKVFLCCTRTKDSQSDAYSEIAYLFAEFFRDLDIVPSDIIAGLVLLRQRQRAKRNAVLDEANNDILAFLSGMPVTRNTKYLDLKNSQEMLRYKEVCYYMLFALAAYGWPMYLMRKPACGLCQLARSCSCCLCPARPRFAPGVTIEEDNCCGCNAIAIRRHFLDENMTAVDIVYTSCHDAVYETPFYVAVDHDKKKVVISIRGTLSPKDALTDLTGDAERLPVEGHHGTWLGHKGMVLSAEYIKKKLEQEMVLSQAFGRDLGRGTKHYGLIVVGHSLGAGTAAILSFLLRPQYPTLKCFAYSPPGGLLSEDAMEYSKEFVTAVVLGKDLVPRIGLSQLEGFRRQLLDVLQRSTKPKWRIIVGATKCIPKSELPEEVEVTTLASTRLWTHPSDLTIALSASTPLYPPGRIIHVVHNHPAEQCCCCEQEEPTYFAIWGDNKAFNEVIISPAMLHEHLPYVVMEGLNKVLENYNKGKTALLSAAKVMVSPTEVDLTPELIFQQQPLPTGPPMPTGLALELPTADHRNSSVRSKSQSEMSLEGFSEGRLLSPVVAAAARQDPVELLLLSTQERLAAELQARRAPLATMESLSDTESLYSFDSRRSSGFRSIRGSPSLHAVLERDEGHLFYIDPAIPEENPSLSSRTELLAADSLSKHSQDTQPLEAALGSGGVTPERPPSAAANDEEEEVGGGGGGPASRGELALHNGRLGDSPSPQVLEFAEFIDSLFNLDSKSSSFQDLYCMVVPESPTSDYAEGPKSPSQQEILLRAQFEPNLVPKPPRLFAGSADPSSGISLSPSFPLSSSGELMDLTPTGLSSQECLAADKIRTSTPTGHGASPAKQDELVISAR
The experiment in a line: Radio-TLC assay of hDAGLα inhibition with [14C]SAG substrate. In kind it is biochemical. Conditions: for inhibition of hDAGLα activity at 10 μM (in words): radiolabeled substrate [14C]SAG.

Test [2] has as its system Lipoprotein Lipase (Bacterial). The experiment in a line: In vitro FRET-based lipoprotein lipase assay with reporter compound 17. It is filed as biochemical, Pseudomonas sp.
Test [3] has as its target T2, Pancreatic Lipase (Porcine) (Sus scrofa, UniProt P00591).
T2 sequence (P00591 1-450): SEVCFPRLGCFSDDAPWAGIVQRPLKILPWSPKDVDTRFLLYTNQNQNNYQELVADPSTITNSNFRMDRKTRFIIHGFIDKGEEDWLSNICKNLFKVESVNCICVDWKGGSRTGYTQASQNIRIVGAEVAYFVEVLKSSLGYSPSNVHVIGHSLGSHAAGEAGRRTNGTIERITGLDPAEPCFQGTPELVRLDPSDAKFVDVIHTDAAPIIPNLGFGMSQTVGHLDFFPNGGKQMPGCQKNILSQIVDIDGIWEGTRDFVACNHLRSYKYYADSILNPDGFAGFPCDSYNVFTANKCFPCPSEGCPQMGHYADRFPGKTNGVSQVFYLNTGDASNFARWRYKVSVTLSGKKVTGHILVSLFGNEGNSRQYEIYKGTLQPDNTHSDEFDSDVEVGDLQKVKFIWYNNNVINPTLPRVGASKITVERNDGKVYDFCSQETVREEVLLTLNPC
Briefly: In vitro FRET-based pancreatic lipase assay with reporter compound 17. In kind it is biochemical. Conditions: preliminary studies, substrate 17.

Test [4] deals with T1, hDAGLα. The following applies: cited from earlier work.
In the next test the test system is FAAH. The following applies: cited from earlier work.
The subject of the next test is cannabinoid receptors. Conditions: cited from earlier work.
Test [5] deals with T1, hDAGLα. Briefly: In vitro FRET-based DAGL assay with reporter compound 17. It is filed as biochemical.
The target of test [6] is CB1 (rat brain preparation) (Rattus norvegicus, UniProt P20272). Briefly: Cannabinoid receptor competition binding, CB1.
The target of another test is T3, mDAGLβ (Mus musculus, UniProt Q91WC9).
T3 sequence (Q91WC9 1-669): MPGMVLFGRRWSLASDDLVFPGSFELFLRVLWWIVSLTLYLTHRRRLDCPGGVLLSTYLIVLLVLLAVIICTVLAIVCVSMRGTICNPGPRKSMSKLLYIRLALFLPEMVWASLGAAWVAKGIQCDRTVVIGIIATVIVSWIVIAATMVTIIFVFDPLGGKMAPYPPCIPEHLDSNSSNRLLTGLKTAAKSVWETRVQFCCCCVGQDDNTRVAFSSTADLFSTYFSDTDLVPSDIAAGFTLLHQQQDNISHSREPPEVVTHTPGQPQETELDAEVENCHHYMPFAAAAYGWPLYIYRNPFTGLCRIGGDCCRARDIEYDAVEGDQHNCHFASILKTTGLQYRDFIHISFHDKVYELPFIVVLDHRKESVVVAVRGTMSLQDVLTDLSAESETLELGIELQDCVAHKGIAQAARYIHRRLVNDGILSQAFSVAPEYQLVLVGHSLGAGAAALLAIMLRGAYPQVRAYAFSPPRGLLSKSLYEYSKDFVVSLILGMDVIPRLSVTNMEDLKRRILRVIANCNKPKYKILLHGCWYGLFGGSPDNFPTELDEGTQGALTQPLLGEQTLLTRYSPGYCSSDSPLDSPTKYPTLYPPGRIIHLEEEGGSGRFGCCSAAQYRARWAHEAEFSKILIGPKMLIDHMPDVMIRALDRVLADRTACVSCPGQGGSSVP
The experiment in a line: Radio-TLC assay of mDAGLβ inhibition with [14C]SAG substrate. In kind it is biochemical, murine.

Marks after values point to notes of the source that are not given here.

Sequence of CB1 (rat brain preparation) (P20272 whole entry): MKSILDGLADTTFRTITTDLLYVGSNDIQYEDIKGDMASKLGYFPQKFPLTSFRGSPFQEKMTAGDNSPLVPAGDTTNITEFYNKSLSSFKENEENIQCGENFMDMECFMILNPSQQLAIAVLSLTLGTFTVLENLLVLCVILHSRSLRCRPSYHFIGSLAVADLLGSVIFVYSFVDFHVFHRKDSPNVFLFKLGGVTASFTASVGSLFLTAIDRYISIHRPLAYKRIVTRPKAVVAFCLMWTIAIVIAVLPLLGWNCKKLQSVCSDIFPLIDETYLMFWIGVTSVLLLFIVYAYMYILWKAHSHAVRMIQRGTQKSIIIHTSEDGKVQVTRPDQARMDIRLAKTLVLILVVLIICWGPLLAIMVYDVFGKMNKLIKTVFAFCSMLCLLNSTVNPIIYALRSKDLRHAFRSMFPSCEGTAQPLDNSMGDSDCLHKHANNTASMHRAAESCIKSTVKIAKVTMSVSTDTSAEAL

`CCCCCCCCCCC[C@@H](C[C@@H]1OC(=O)[C@H]1CCCCCC)OC(=O)[C@H](CC(C)C)NC=O` [3 (THL), tetrahydrolipstatin]: the “inhibition of hDAGLα activity at 10 μM (in words)” value at hDAGLα [1] was “complete inhibition”. In addition, in [2], the “inhibition of bacterial lipoprotein lipase (in words)” value is given as “potent inhibition”. Also, in [2] (read-out: apparent IC50 with lipoprotein lipase in FRET assay), the IC50 is roughly 100 nM. Moreover, in test [3], the “inhibition of porcine triacylglycerol lipase (in words)” value was “potent inhibition”.
As to `O=C(Oc1ccc([N+](=O)[O-])cc1)N1CCC(C(O)(c2ccc3c(c2)OCO3)c2ccc3c(c2)OCO3)CC1` [JZL184], on hDAGLα [1], the “inhibition of hDAGLα in radio-TLC assays (in words)” value is recorded as “poor inhibitors”. Further, at hDAGLα [4], the “reported inhibition of DAGL activity (in words)” value was “poor inhibitors”. Also, in the test with FAAH, the “reported inhibition of FAAH activity (in words)” value was “poor inhibitors”. Besides, the “binding to the cannabinoid receptors, previous reports (in words)” value in the test on cannabinoid receptors is given as “did not bind”.
For the compound `O=S(=O)(F)Cc1ccccc1` [PMSF, phenylmethylsulfonylfluoride], on hDAGLα [1], the “inhibition of hDAGLα in radio-TLC assays (in words)” value was “poor inhibitors”. At hDAGLα [4], the “effect on / reaction with DAGL (in words)” value was “not affected” and the “reported inhibition of DAGL activity (in words)” value is given as “poor inhibitors”. For the same compound, in the test on FAAH, the “reported inhibition of FAAH activity (in words)” value is listed as “poor inhibitors”.
As to `O=C(NCCCCCCNC(=O)ON=C1CCCCC1)ON=C1CCCCC1` [RHC80267 (1), RHC80267], at hDAGLα [1], the “inhibition of hDAGLα in radio-TLC assays (in words)” value is on record as “poor inhibitors”. Besides, the “hDAGLα inhibition at 10 μM detergent free (%)” value at hDAGLα [5] is on record as 40 ^* %. Moreover, the “binding to the cannabinoid receptors (in words), CB1” value in test [6] is on record as “did not bind”. Also, on hDAGLα [4], the “reported inhibition of DAGL activity (in words)” value is reported as “poor inhibitors”. Also, the “reported inhibition of FAAH activity (in words)” value in the test on FAAH is listed as “poor inhibitors”.
Consider `O=C(N[C@H]1COC1=O)OCc1ccccc1` [SD41], for which the “inhibition of hDAGLα activity at 10 μM (in words)” value against hDAGLα [1] is on record as “did not inhibit”. Also, the “binding to the cannabinoid receptors (in words), CB1” value in test [6] is listed as “did not bind”. Also, on mDAGLβ, the “inhibition of mDAGLβ at 10 μM screening concentration (in words)” value is reported as “did not inhibit”.
As for `NC(=O)c1cccc(-c2cccc(OC(=O)NC3CCCCC3)c2)c1` [URB597], the “binding to the cannabinoid receptors, previous reports (in words)” value in the test on cannabinoid receptors was “did not bind”.
